# ChEMBL document CHEMBL4819108, “A trio of quinoline-isoniazid-phthalimide with promising antiplasmodial potential: Synthesis, in-vitro evaluation and heme-polymerization inhibition studies” (Bioorg Med Chem, 2021)
# Legend:
# Plasmodium falciparum [1] = test: Antiplasmodial activity against CQ-resistant Plasmodium falciparum W2; assay type: functional, organism-based
# Vero = test: Cytotoxicity against African green monkey Vero cells; assay type: cell-based; details: Chlorocebus sabaeus
# [2] = Selectivity index, ratio of IC50 for African green monkey Vero cells to IC50 for antiplasmodial activity against CQ-resistant Plasmodium falciparum W2; assay type: toxicity; details: read-out: Ratio IC50
# Heme [3] = test: Binding affinity to monomeric heme in MES buffer at pH 5.6
# Heme [4] = test: Binding affinity to monomeric heme in HEPES buffer at pH 7.4
# Plasmodium falciparum [5] = test: Antimalarial activity against Plasmodium falciparum RKL9 infected in human RBC assessed as reduction in parasite growth incubated for 24 hrs by giemsa staining based assay; assay type: functional, organism-based; details: RKL9, Erythrocyte
# Plasmodium falciparum [6] = test: Antimalarial activity against Plasmodium falciparum 7G8; assay type: functional, organism-based
Compound,IC50 (Plasmodium falciparum [1]) [nM],IC50 (Vero) [nM],selectivity ratio [2],further results
O=C(O)c1ccc2c(c1)C(=O)N(CCNc1ccnc3cc(Cl)ccc13)C2=O,424,> 253000,601,
O=C(CN1C(=O)c2ccccc2C1=O)NNC(=O)c1ccncc1,> 10000,> 308000,30.8,
O=C(NCCCCCCNc1ccnc2cc(Cl)ccc12)c1ccc2c(c1)C(=O)N(NC(=O)c1ccncc1)C2=O,11.5,,2900,log K (Heme [3]): 6.39; log K (Heme [4]): 6.66
O=C(NCCCNc1ccnc2cc(Cl)ccc12)c1ccc2c(c1)C(=O)N(NC(=O)c1ccncc1)C2=O,439,,366,
O=C(NCCCCCCCCNc1ccnc2cc(Cl)ccc12)c1ccc2c(c1)C(=O)N(NC(=O)c1ccncc1)C2=O,93.5,> 167000,1790,
O=C(NNC(=O)c1ccc2c(c1)C(=O)N(CCCNc1ccnc3cc(Cl)ccc13)C2=O)c1ccncc1,412,,289,
O=C(NNC(=O)c1ccc2c(c1)C(=O)N(CCCCCCCCNc1ccnc3cc(Cl)ccc13)C2=O)c1ccncc1,43.3,,2970,
O=C(NNC(=O)c1ccc2c(c1)C(=O)N(CCCCNc1ccnc3cc(Cl)ccc13)C2=O)c1ccncc1,26.3,,627,
O=C(NN1C(=O)c2ccc(C(=O)OCCNc3ccnc4cc(Cl)ccc34)cc2C1=O)c1ccncc1,812,> 194000,239,
O=C(N/N=C/c1ccc(O)cc1)c1ccncc1,,,,IC50 (Plasmodium falciparum [5]): 42.2 nM
O=C(NN1C(=O)c2ccc(C(=O)OCCCNc3ccnc4cc(Cl)ccc34)cc2C1=O)c1ccncc1,3770,> 189000,50,
O=C(NN1C(=O)c2ccc(N3CCN(c4ccnc5cc(Cl)ccc45)CC3)cc2C1=O)c1ccncc1,1300,> 438000,338,
O=C(NCCCCNc1ccnc2cc(Cl)ccc12)c1ccc2c(c1)C(=O)N(NC(=O)c1ccncc1)C2=O,253,,58.1,
O=C(NNC(=O)c1ccc(N2C(=O)c3ccccc3C2=O)cc1)c1ccncc1,> 10000,> 259000,25.8,
O=C(NNC(=O)c1ccc2c(c1)C(=O)N(CCNc1ccnc3cc(Cl)ccc13)C2=O)c1ccncc1,1400,> 194000,138,
O=C(NNC(=O)c1ccc2c(c1)C(=O)N(CCCCCCNc1ccnc3cc(Cl)ccc13)C2=O)c1ccncc1,> 10000,,12.7,
O=C(N/N=C/c1c(O)ccc2ccccc12)c1ccncc1,,,,IC50 (Plasmodium falciparum [6]): 42.2 nM
O=C(NCCNc1ccnc2cc(Cl)ccc12)c1ccc2c(c1)C(=O)N(NC(=O)c1ccncc1)C2=O,445,,144,
O=C(O)c1ccc2c(c1)C(=O)N(CCCNc1ccnc3cc(Cl)ccc13)C2=O,496,,487,
O=C(N/N=C/C=C/c1ccccc1)c1ccncc1,,,,IC50 (Plasmodium falciparum [5]): 66 nM
O=C(O)c1ccc2c(c1)C(=O)N(CCCCNc1ccnc3cc(Cl)ccc13)C2=O,50.8,,789,
O=C(O)c1ccc2c(c1)C(=O)N(CCCCCCNc1ccnc3cc(Cl)ccc13)C2=O,30.2,,805,
COc1ccc(/C=N/NC(=O)c2ccncc2)cc1O,,,,IC50 (Plasmodium falciparum [5]): 40.2 nM
O=C(O)c1ccc2c(c1)C(=O)N(CCCCCCCCNc1ccnc3cc(Cl)ccc13)C2=O,43.2,> 208000,4820,
